# Test results reported in the supplement of paper PMC4862054.
# Tests used:
# Assay in all cases: normalised response (% of control), CellTiter-Glo; higher = more viable cells (100 = DMSO, 0 = benzethonium chloride kill control)
# Conditions in all cases: incubation time: 72 h
# DU-4475 = tested on: DU-4475
# Procedure, shortened: (§1)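 Values are normalised signals, each belonging to one concentration of the series. Breast cancer cells (20 µl suspension) were seeded into 384-well plates with compound at 5 concentrations in 10-fold steps over a compound-specific 10,000-fold range and incubated 72 h. Readouts were CellTox Green fluorescence (485/520 nm), then CellTiter-Glo luminescence after 10 min at room temperature, with each plate set to 0.1 % DMSO as 100 and a positive kill control as 0.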
# HDQ-P1 = tested on: HDQ-P1
# Procedure, shortened: as §1
# MDA-MB-231 = tested on: MDA-MB-231
# Procedure, shortened: as §1
# BT-549 = tested on: BT-549
# Procedure, shortened: as §1
# Hs578T = tested on: Hs578T
# Procedure, shortened: as §1
# HCC1937 = tested on: HCC1937
# Procedure, shortened: as §1
# CAL-51 = tested on: CAL-51
# Procedure, shortened: as §1
# MFM-223 = tested on: MFM-223
# Procedure, shortened: as §1
# BT-474 = tested on: BT-474
# Procedure, shortened: as §1
# MCF-10A = tested on: MCF-10A
# Procedure, shortened: as §1
# HCC1599 = tested on: HCC1599
# Procedure, shortened: as §1
# CAL-120 = tested on: CAL-120
# Procedure, shortened: as §1
# CAL-85-1 = tested on: CAL-85-1
# Procedure, shortened: as §1
# MDA-MB-468 = tested on: MDA-MB-468
# Procedure, shortened: as §1
# MDA-MB-436 = tested on: MDA-MB-436
# Procedure, shortened: as §1
# MDA-MB-453 = tested on: MDA-MB-453
# Procedure, shortened: as §1
# SK-BR-3 = tested on: SK-BR-3
# Procedure, shortened: as §1
# HCC1143 = tested on: HCC1143
# Procedure, shortened: as §1
# CAL-148 = tested on: CAL-148
# Procedure, shortened: as §1
Compound,normalised response (DU-4475) [%],normalised response (HDQ-P1) [%],normalised response (MDA-MB-231) [%],normalised response (BT-549) [%],normalised response (Hs578T) [%],normalised response (HCC1937) [%],normalised response (CAL-51) [%],normalised response (MFM-223) [%],normalised response (BT-474) [%],normalised response (MCF-10A) [%],normalised response (HCC1599) [%],normalised response (CAL-120) [%],normalised response (CAL-85-1) [%],normalised response (MDA-MB-468) [%],normalised response (MDA-MB-436) [%],normalised response (MDA-MB-453) [%],normalised response (SK-BR-3) [%],normalised response (HCC1143) [%],normalised response (CAL-148) [%]
COc1cc(Nc2ncc3c(n2)-c2ccc(Cl)cc2C(c2c(F)cccc2OC)=NC3)ccc1C(=O)O [Alisertib] (10 nM),98.2,97.1,95.3,96,97,95.9,86.4,88.6,93.4,93,102,96.1,94.4,87.7,89.5,88.3,70.4,93.9,91.9
O=C(c1ccc(C(=O)N2CCC(N3CCCC3)CC2)c(Nc2ccccc2)c1)N1CCC(N2CCCC2)CC1 [UNC1215] (30 nM),97,94.3,90.2,97.8,103,96.7,77.9,91.4,98.7,103,118,102,96.7,97.4,104,91.5,100,97.3,95
CC(=O)O[C@]1(C(C)=O)CC[C@H]2[C@@H]3C=C(C)C4=CC(=O)CC[C@]4(C)[C@H]3CC[C@@]21C [Megestrol acetate] (10 nM),96.6,104,101,100,96.9,95,83.4,97.1,102,107,105,98.1,98,107,96.3,103,102,104,86.9
S=c1[nH]cnc2nc[nH]c12 [Mercaptopurine] (10 nM),98.5,97.1,96,97.7,100,93.1,119,97.2,98.6,103,89.8,98.5,94.5,94.3,98,93,109,106,83.4
Cc1ccc(F)c(NC(=O)Nc2ccc(-c3cccc4[nH]nc(N)c34)cc2)c1 [Linifanib] (1 nM),111,104,106,104,98.9,101,100,112,106,109,112,102,103,106,101,113,,110,114
Nc1nc(Cl)nc2c1ncn2[C@H]1C[C@H](O)[C@@H](CO)O1 [Cladribine] (1 nM),106,97.8,100,97.2,105,101,94.2,105,99.3,104,102,97.5,102,102,102,113,,104,103
Nc1ccn([C@@H]2O[C@H](CO)[C@@H](O)[C@@H]2O)c(=O)n1 [Cytarabine] (10 nM),99.4,107,99.2,96.8,114,96.5,80.4,107,97.6,112,90.2,96.4,99,93.8,105,109,,99.3,102
N#CC[C@H](C1CCCC1)n1cc(-c2ncnc3[nH]ccc23)cn1 [Ruxolitinib] (10 nM),97.4,94,95.2,98.3,96.2,89.3,121,92.6,97,88.8,76.5,104,91.2,100,92.2,83.8,81.5,100,86
CN1CCC(COc2cnc(-c3cccc(Cn4nc(-c5cccc(C#N)c5)ccc4=O)c3)nc2)CC1 (0.1 nM),93.1,99.1,98.5,95.1,96.4,94.5,82.4,94.2,98.2,89.1,92.2,96.1,92.8,96.9,81.1,105,84.6,94.6,103
C=CCNC1=C2C[C@@H](C)C[C@H](OC)[C@H](O)[C@@H](C)/C=C(\C)[C@H](OC(N)=O)[C@@H](OC)/C=C\C=C(/C)C(=O)NC(=CC1=O)C2=O [Tanespimycin] (10 nM),105,98.2,101,98.3,94.4,96.5,120,101,90.4,105,94.4,97.9,100,94.2,92.6,92.8,103,105,96.4
CN(C)C/C=C/C(=O)Nc1cc2c(Nc3ccc(F)c(Cl)c3)ncnc2cc1O[C@H]1CCOC1 [Afatinib] (0.1 nM),104,108,103,97.3,99.6,96.6,75,96.2,94.9,91.2,99,93.7,116,100,85.8,111,104,93.2,103
CC[C@]1(O)C[C@@H]2CN(CCc3c([nH]c4ccccc34)[C@@](C(=O)OC)(c3cc4c(cc3OC)N(C)[C@H]3[C@@](O)(C(=O)OC)[C@H](OC(C)=O)[C@]5(CC)C=CCN6CC[C@]43[C@@H]65)C2)C1 [Vinblastine] (1 nM),96.9,101,94.7,87.8,102,94.9,101,97.6,100,103,101,95,93,97.9,90.7,97.2,94.7,97.1,98.8
C=CC[C@@H]1/C=C(\C)C[C@H](C)C[C@H](OC)[C@H]2O[C@@](O)(C(=O)C(=O)N3CCCC[C@H]3C(=O)O[C@H](/C(C)=C/[C@@H]3CC[C@@H](O)[C@H](OC)C3)[C@H](C)[C@@H](O)CC1=O)[C@H](C)C[C@@H]2OC [Tacrolimus] (10 nM),105,100,100,101,103,100,110,98.8,105,103,102,97.7,99,97.6,106,109,119,103,97.4
COc1cccc2cc(-c3nc([C@H]4CC[C@H](C(=O)O)CC4)n4ncnc(N)c34)[nH]c12 [OSI-027] (10 nM),97.1,100,96,93.8,97.7,94.2,82.7,93,101,98.8,92.7,101,90.7,94.6,93.8,94.3,77.3,96.6,88.7
O=C(c1ccc(C(=O)N2CCC(N3CCCC3)CC2)c(Nc2ccccc2)c1)N1CCC(N2CCCC2)CC1 [UNC1215] (3 nM),97.2,97.3,99.1,96.6,99.1,91.7,123,94.5,94.4,102,92.1,95.3,93.7,101,93.6,102,99,87.5,91
OC[C@H]1O[C@@H](n2cnc3c2N=CNC[C@H]3O)C[C@@H]1O [Pentostatin] (10 nM),104,100,99.2,91.2,106,98.2,78,101,98,99.9,104,98,102,94.4,97.3,103,101,98.9,102
C[C@]1(c2nc3c(C(N)=O)cccc3[nH]2)CCCN1 [Veliparib] (10 nM),104,98.7,99,100,98.8,101,118,99.7,103,105,92.1,102,106,108,99,109,110,105,98.8
COc1cccc2c1C(=O)c1c(O)c3c(c(O)c1C2=O)C[C@@](O)(C(=O)CO)C[C@@H]3O[C@H]1C[C@H](N)[C@H](O)[C@H](C)O1 [Doxorubicin] (1 nM),108,101,99.5,94.2,100,98.6,107,105,101,110,120,93.6,103,104,107,113,,99.1,95.7
Cc1c2oc3c(C)ccc(C(=O)N[C@@H]4C(=O)N[C@H](C(C)C)C(=O)N5CCC[C@H]5C(=O)N(C)CC(=O)N(C)[C@@H](C(C)C)C(=O)O[C@@H]4C)c3nc-2c(C(=O)N[C@@H]2C(=O)N[C@H](C(C)C)C(=O)N3CCC[C@H]3C(=O)N(C)CC(=O)N(C)[C@@H](C(C)C)C(=O)O[C@@H]2C)c(N)c1=O [Dactinomycin] (1 nM),97,71.4,97.7,71.9,105,79.9,99.9,105,79.4,77.8,102,90.3,90.8,60.3,87,94,,80.8,81.8
